{
  "source": "ChEMBL document CHEMBL3286342",
  "about": "“Design, synthesis, and structure-activity relationships of pyridoquinazolinecarboxamides as RNA polymerase I inhibitors” (J Med Chem, 2014)",
  "key": {"[1]": {"experiment": "Inhibition of RNA polymerase-1 in human U2OS cells assessed as decrease in nucleolar localization of nucleolin after 3 hrs by epifluorescence microscopic analysis", "assay_type": "cell-based"}, "[2]": {"molecular_target": "DNA-directed RNA polymerase I subunit RPA1 (Homo sapiens, UniProt O95602)", "sequence (O95602 whole entry)": "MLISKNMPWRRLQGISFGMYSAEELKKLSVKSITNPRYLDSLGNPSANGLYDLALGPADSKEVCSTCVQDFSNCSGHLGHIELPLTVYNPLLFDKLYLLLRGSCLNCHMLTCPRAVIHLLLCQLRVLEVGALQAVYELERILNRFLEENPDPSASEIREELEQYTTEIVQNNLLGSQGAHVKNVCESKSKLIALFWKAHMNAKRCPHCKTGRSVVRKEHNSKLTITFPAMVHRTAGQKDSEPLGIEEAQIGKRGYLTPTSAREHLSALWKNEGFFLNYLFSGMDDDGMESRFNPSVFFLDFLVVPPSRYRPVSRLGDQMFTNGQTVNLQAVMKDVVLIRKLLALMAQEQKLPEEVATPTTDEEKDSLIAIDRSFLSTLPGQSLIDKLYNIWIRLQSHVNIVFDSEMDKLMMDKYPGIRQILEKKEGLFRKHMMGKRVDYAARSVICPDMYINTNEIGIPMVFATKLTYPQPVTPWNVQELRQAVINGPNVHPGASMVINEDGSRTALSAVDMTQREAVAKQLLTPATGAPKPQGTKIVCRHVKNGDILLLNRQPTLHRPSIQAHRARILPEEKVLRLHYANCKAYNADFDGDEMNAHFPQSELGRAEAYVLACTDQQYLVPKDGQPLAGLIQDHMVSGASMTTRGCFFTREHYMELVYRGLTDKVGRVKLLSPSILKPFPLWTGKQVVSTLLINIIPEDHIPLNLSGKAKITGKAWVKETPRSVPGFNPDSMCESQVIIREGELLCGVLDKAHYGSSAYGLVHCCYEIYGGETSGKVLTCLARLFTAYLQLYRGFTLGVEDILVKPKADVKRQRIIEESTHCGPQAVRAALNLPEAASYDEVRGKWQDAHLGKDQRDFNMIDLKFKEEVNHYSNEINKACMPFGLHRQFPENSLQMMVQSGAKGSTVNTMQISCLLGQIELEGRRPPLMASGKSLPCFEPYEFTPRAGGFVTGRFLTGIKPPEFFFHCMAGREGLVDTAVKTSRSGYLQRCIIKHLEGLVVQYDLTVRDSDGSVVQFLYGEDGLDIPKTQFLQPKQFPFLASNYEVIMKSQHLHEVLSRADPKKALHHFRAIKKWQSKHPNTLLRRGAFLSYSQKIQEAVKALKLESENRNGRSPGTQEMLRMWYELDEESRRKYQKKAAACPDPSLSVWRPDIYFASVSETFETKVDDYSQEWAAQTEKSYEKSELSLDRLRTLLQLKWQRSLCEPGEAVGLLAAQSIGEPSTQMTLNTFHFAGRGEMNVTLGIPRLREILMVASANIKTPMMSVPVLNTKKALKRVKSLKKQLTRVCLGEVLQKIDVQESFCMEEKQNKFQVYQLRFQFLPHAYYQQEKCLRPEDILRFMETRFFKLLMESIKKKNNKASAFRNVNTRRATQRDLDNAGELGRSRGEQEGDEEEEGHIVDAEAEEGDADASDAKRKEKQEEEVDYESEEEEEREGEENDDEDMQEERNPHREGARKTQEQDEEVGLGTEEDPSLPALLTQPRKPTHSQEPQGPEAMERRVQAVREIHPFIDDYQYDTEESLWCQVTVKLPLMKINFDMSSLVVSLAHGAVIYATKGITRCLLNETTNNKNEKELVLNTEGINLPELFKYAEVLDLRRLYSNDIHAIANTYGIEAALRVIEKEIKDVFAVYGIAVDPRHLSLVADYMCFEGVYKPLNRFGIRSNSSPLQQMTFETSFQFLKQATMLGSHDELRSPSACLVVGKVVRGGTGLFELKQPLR", "details": "u2os", "description": "Induction of RNA polymerase-1 RPA194 subunit degradation in human U2OS cells after 3 hrs by epifluorescence microscopic analysis"}, "U2OS [3]": {"system": "U2OS", "experiment": "Cytotoxicity against human U2OS cells assessed as loss of cell viability at 0.5 to 5 uM after 48 hrs by WST-1 assay", "assay_type": "functional, cell-based"}, "U2OS [4]": {"system": "U2OS", "details": "Homo sapiens, 0.1 to 1 uM", "description": "Inhibition of RNA polymerase-1 in human U2OS cells assessed as effect on nucleolin protein expression at 0.1 to 1 uM after 3 hrs by Western blot analysis"}, "U2OS [5]": {"system": "U2OS", "details": "Homo sapiens, 10 uM", "description": "Inhibition of RNA polymerase-1 in human U2OS cells assessed as effect on nucleolin protein expression at 10 uM after 3 hrs by Western blot analysis"}, "Liver microsome": {"system": "Liver microsome", "experiment": "Half life in human liver microsomes at 1 uM preincubated for 5 mins followed by beta-NADPH addition", "assay_type": "ADME"}},
  "note": "Active and inactive are the calls of the source. The rule behind the calls is not given here.",
  "data": [
    {"smiles": "CN(C)CCOC(=O)c1cccn2c(=O)c3cc4ccccc4cc3nc12", "values": [
      {"measurement": "IC50", "setting": "[1]", "value": 12.3, "unit": "µM"},
      {"measurement": "IC50", "setting": "[2]", "value": 50.9, "unit": "µM"}
    ]},
    {"smiles": "CN(C)CCN(C)C(=O)c1cccn2c(=O)c3cc4ccccc4cc3nc12", "values": [
      {"measurement": "IC50", "setting": "[1]", "value": "> 100", "unit": "µM"},
      {"measurement": "Activity", "setting": "U2OS [3]", "value": "inactive"},
      {"measurement": "inhibition", "setting": "U2OS [4]", "value": "inactive"},
      {"measurement": "inhibition", "setting": "U2OS [5]", "value": "Active"}
    ]},
    {"smiles": "O=C(NCCN1CCCC1)c1cccn2c(=O)c3cc4ccccc4cc3nc12", "values": [
      {"measurement": "Activity", "setting": "U2OS [3]", "value": "Active"},
      {"measurement": "t1/2", "setting": "Liver microsome", "value": 33, "unit": "min"}
    ]},
    {"smiles": "CCN(CC)CCNC(=O)c1cccn2c(=O)c3ccccc3nc12", "values": [
      {"measurement": "IC50", "setting": "[1]", "value": 3.28, "unit": "µM"},
      {"measurement": "IC50", "setting": "[2]", "value": 1.35, "unit": "µM"}
    ]},
    {"smiles": "CN(C)CCNC(=O)c1cccn2c(=O)c3cc4ccccc4cc3nc12", "values": [
      {"measurement": "IC50", "setting": "[1]", "value": 0.07, "unit": "µM"},
      {"measurement": "Activity", "setting": "U2OS [3]", "value": "Active"},
      {"measurement": "t1/2", "setting": "Liver microsome", "value": 57, "unit": "min"},
      {"measurement": "inhibition", "setting": "U2OS [4]", "value": "inactive"},
      {"measurement": "inhibition", "setting": "U2OS [5]", "value": "Active"}
    ]},
    {"smiles": "CC(CN(C)C)NC(=O)c1cccn2c(=O)c3cc4ccccc4cc3nc12", "note": "(stereo not given)", "values": [
      {"measurement": "t1/2", "setting": "Liver microsome", "value": 54, "unit": "min"},
      {"measurement": "inhibition", "setting": "U2OS [4]", "value": "inactive"},
      {"measurement": "inhibition", "setting": "U2OS [5]", "value": "Active"}
    ]},
    {"smiles": "CCN(CC)C1CCN(C(=O)c2cccn3c(=O)c4cc5ccccc5cc4nc23)C1", "note": "(stereo not given)", "values": [
      {"measurement": "IC50", "setting": "[1]", "value": 10.6, "unit": "µM"},
      {"measurement": "IC50", "setting": "[2]", "value": 31.8, "unit": "µM"}
    ]},
    {"smiles": "COCCN(C)CCNC(=O)c1cccn2c(=O)c3cc4ccccc4cc3nc12", "values": [
      {"measurement": "t1/2", "setting": "Liver microsome", "value": 14, "unit": "min"}
    ]},
    {"smiles": "CN1CCN(CCNC(=O)c2cccn3c(=O)c4cc5ccccc5cc4nc23)CC1", "values": [
      {"measurement": "t1/2", "setting": "Liver microsome", "value": 43, "unit": "min"}
    ]},
    {"smiles": "O=C(NCCN1CCOCC1)c1cccn2c(=O)c3cc4ccccc4cc3nc12", "values": [
      {"measurement": "Activity", "setting": "U2OS [3]", "value": "inactive"},
      {"measurement": "inhibition", "setting": "U2OS [4]", "value": "inactive"},
      {"measurement": "inhibition", "setting": "U2OS [5]", "value": "Active"}
    ]},
    {"smiles": "CC(CNC(=O)c1cccn2c(=O)c3cc4ccccc4cc3nc12)N(C)C", "note": "(stereo not given)", "values": [
      {"measurement": "Activity", "setting": "U2OS [3]", "value": "Active"},
      {"measurement": "t1/2", "setting": "Liver microsome", "value": 43, "unit": "min"}
    ]},
    {"smiles": "O=C(NCCN1CCCCC1)c1cccn2c(=O)c3cc4ccccc4cc3nc12", "values": [
      {"measurement": "Activity", "setting": "U2OS [3]", "value": "Active"},
      {"measurement": "t1/2", "setting": "Liver microsome", "value": 25, "unit": "min"},
      {"measurement": "inhibition", "setting": "U2OS [4]", "value": "inactive"},
      {"measurement": "inhibition", "setting": "U2OS [5]", "value": "Active"}
    ]},
    {"smiles": "CN(C)CCNC(=O)c1cccn2c(=O)c3ccccc3nc12", "values": [
      {"measurement": "IC50", "setting": "[1]", "value": 3.17, "unit": "µM"},
      {"measurement": "Activity", "setting": "U2OS [3]", "value": "inactive"},
      {"measurement": "IC50", "setting": "[2]", "value": 2.17, "unit": "µM"},
      {"measurement": "inhibition", "setting": "U2OS [4]", "value": "inactive"},
      {"measurement": "inhibition", "setting": "U2OS [5]", "value": "Active"}
    ]},
    {"smiles": "CN(C)CCCCNC(=O)c1cccn2c(=O)c3cc4ccccc4cc3nc12", "values": [
      {"measurement": "Activity", "setting": "U2OS [3]", "value": "inactive"},
      {"measurement": "inhibition", "setting": "U2OS [4]", "value": "inactive"},
      {"measurement": "inhibition", "setting": "U2OS [5]", "value": "Active"}
    ]},
    {"smiles": "CCN(CC)CCNC(=O)c1cccn2c(=O)c3cc4ccccc4cc3nc12", "values": [
      {"measurement": "t1/2", "setting": "Liver microsome", "value": 21, "unit": "min"}
    ]}
  ]
}
